Results from patent publication US20020019344A1, “Methods of preventing allograft rejection” (priority 2000, published 2002).
Where two headings read alike, the source gives them in different places.

Experiments:
[1] = tested on: monocyte/macrophages; conditions: Thieringer et al.; cited from earlier work
[2] = tested on: IL-2 secretion in human T lymphocytes; experiment: Inhibition of PHA/PMA-induced IL-2 secretion in human T lymphocytes; format: cell-based; conditions: for activation of IL-2 production: 5 micromolar, preincubation 12 hours prior to activator
Protocol: The following test can be used to detect whether an insulin sensitizing agent is also able to inhibit IL-2 production. Isolated human T lymphocytes or a mammalian lymphocyte cell line which expresses PPARgamma is stimulated with one or a combination of PHA/PMA, TNF-alpha, interferon-gamma or some other factor that activates induction of IL-2 gene expression. Production of IL-2 is determined by measuring the concentration of IL-2 in the supernatant from cells using Endogen kits (Wolbum), as described by Yang et al.

[3] = tested on: NF-kappaB; experiment: Inhibition of NF-kappaB activation, electrophoretic mobility shift assay; format: cell-based, human; conditions: 5 micromolar; preincubation 2 hours prior to activator
Protocol: The following test can be used to generically identify compounds of use in this invention based upon their ability to act as an agonist of PPAR. […] The rexinoid, LG100754 is a selective RXR/PPARgamma agonists. These compounds are tested for the ability to inhibit activity of NF-kappaB. Isolated human T lymphocytes or a mammalian cell line such as a Jurkat T cell line which expresses PPARgamma is stimulated with a concentration of one or a combination of: phytohemagglutinin/phorbol 12-myristate 13-acetate (PHA/PMA), TNF-alpha, interferon-gamma or some other factor that activates NF-kappaB. Activation of NF-kappaB is determined by electrophoretic mobility shift assay similar to that described by Rossi et al.

[4] = tested on: NFAT; experiment: Inhibition of NFAT activation, electrophoretic mobility shift assay; format: cell-based, human; conditions: 5 micromolar; preincubation 2 hours prior to activator
Protocol: Isolated human T lymphocytes or a mammalian cell line such as a Jurkat T cell line which expresses PPARgamma is stimulated with a concentration of one or a combination of PHA/PMA, TNF-alpha, interferon-gamma or some other factor that activates NFAT. Transcriptional activation of NFAT is determined by electrophoretic mobility shift assay similar to that described by Yang et al.

[5] = 10 uM, preincubated with drug for 24 hr, +PHA/PMA

Question: For Cc1oc(-c2ccccc2)nc1C(O)COc1ccc(CC2SC(=O)NC2=O)cc1 (centres unmarked) [AD-5075], which “effect on TNF-alpha and lipopolysaccharide production” value [1] is on record?
Answer: no effect

Question: Which IL-2 released [2, 5] does the source give for CN(CCOc1ccc(CC2SC(=O)NC2=O)cc1)C(=O)CCCCC1CCSS1 (centres unmarked) [BP1-003] here?
Answer: 37 ± 7 pg/ml supernatant

Question: And the “Percent Inhibition” value [2, 5]?
Answer: 92%

Question: What does the source list for CCCOc1cc2c(cc1\C(C)=C/C=C/C(C)=C/C(=O)O)C(C)(C)CCC2(C)C [LG100754]?
Answer: activation of NF-kappaB [3]: inhibits the activation of NF-kappaB; activation of IL-2 production [2]: inhibits the activation of IL-2 production; activation of NFAT [4]: inhibits the activation of NFAT

Question: For CCCCC[C@H](O)/C=C/[C@H]1C(=O)C=C[C@@H]1C/C=C\CCCC(=O)O [prostaglandin J2], which “activation of NF-kappaB” value [3] is on record?
Answer: inhibits the activation of NF-kappaB

Question: And the “activation of IL-2 production” value [2]?
Answer: inhibits the activation of IL-2 production

Question: What about the “activation of NFAT” value [4] of the same compound?
Answer: inhibits the activation of NFAT

Question: With CN(CCOc1ccc(CC2SC(=O)NC2=O)cc1)c1ccccn1 (centres unmarked) [rosiglitazone] as the compound, how does the IL-2 released ([2]; 0.1 uM, preincubated with drug for 12 hr, +PHA/PMA) read?
Answer: 481 ± 11 c.p.m.

Question: And the IL-2 released ([2]; 1.0 uM, preincubated with drug for 12 hr, +PHA/PMA)?
Answer: 406 ± 12 c.p.m.

Question: And the IL-2 released ([2]; 10 uM, preincubated with drug for 12 hr, +PHA/PMA)?
Answer: 323 ± 26 c.p.m.

Question: What about the IL-2 released [2, 5] of the same compound?
Answer: 112 ± 7 pg/ml supernatant

Question: And the inhibition at 0.1 µM ([2]; Homo sapiens, T-lymphocyte, 0.1 uM, preincubated with drug for 12 hr, +PHA/PMA, read-out: Percent Inhibition)?
Answer: 12%

Question: And the inhibition at 1 µM ([2]; Homo sapiens, T-lymphocyte, 1.0 uM, preincubated with drug for 12 hr, +PHA/PMA, read-out: Percent Inhibition)?
Answer: 25%

Question: What about the inhibition at 10 µM ([2]; Homo sapiens, T-lymphocyte, 10 uM, preincubated with drug for 12 hr, +PHA/PMA, read-out: Percent Inhibition) of the same compound?
Answer: 41%

Question: What about the inhibition at 10 µM ([2]; Homo sapiens, T-lymphocyte, 10 uM, preincubated with drug for 24 hr, +PHA/PMA, read-out: Percent Inhibition) of the same compound?
Answer: 75%
